# Measurements as given in patent US9408856B2, “Topical steroidal formulations” (Temple University—Of The Commonwealth System of Higher …, priority 2008, dated 2016).
# What was measured:
# [1] = tested on: TPA-stimulated epidermal hyperplasia in mouse skin; experiment: TPA-stimulated epidermal hyperplasia in mouse skin, subcutaneous fluasterone; type: in vivo, mice; conditions: subcutaneous injection
# Method: In dose-response experiments the anti-hyperplastic efficacy of fluasterone in TPA-treated mouse epidermis to determine bioavailability following different routes of administration was measured. Mice were treated with a single dose of fluasterone (either orally, subcutaneously, or transdermally) followed by a single application of TPA to the shaved back one hour latter. In case of transdermal administration, fluasterone is applied in a topical formulation to the shaved abdomen to allow for systemic absorption to the back of the animal. Twenty hours after TPA application, the mice are injected with 60 μCi of [3H] thymidine, sacrificed 20 minutes later, and a 2×2 cm2 of skin from the shaved back is excised and processed for the determination of the amount of [3H] thymidine incorporated per unit of epidermal DNA. (Hennings et. al., Cancer Res. 28:543-552, 1968).
# [2] = Oral single dose PK experiment in mice; type: in vivo; conditions: 200 mg/kg oral single dose
# Method: (§1) An oral single dose PK experiment in mice following administration of 200 mg/kg fluasterone was performed. The calculated AUC0-24 was 2,242 (ngXh/mL). A PK study was also performed in 12 human volunteers as part of a phase I fluasterone study. The volunteers received either 800 mg or 1600 mg fluasterone orally as a daily dose. The AUC0-24/mg dose was calculated.
# [3] = PK study in human volunteers (phase I); type: in vivo; conditions: 12 human volunteers; calculated for 1200 mg oral dose from AUC0-24/mg at 800 mg or 1600 mg daily
# Method: as §1
# [4] = tested on: fasting plasma triglyceride levels; experiment: Phase I/II trial in hypertriglyceridemic patients; type: in vivo, human; conditions: about 1200 mg oral
# Method: The lowest effective oral dose of fluasterone which lowers fasting plasma triglycerides in diabetic mice is about 200 mg/kg, which translates into an oral human dose of about 1200 mg.
# [5] = tested on: TPA-promoted skin tumor promotion; conditions: Schwartz et al. Carcinogenesis 10:1809-1813, 1989; cited from earlier work
# [6] = tested on: TPA-stimulated epidermal DNA synthesis in mouse epidermis; experiment: TPA-induced epidermal DNA synthesis in mouse epidermis, oral fluasterone; type: in vivo, CD-1 mice; conditions: Table 20; TPA 2 μg topical after sesame oil and suspension vehicle p.o. only; 20 h; group mean
Compound,lowest effective dose which abolishes TPA-stimulated epidermal hyperplasia [1] [mg/kg],AUC0-24 [2],AUC0-24 [3],effect on fasting plasma triglyceride levels [4],lowest reported oral dose which inhibits TPA-promoted skin tumor promotion [5] [mg/kg],cpm/μg DNA [6] [cpm/μg DNA],dpm/μg DNA [6] [dpm/μg DNA]
"C[C@]12CCCCC1=CC[C@@H]1[C@@H]2CC[C@]2(C)C(=O)[C@H](F)C[C@@H]12 [Fluasterone, 16α-fluoro-5-androsten-17-one]",2.5 to 5,"2,242 ngXh/mL","2,316 ngXh/mL",significantly lowered,200,,
"CCCCCCCCCCCCCC(=O)O[C@@H]1[C@@H](C)[C@@]2(O)[C@@H](C=C(CO)C[C@]3(O)C(=O)C(C)=C[C@@H]23)[C@@H]2C(C)(C)[C@]12OC(C)=O [TPA, 12-O-tetradecanoylphorbol-13-acetate, reference compound]",,,,,,374.1 ± 16.8,603.4 ± 36.8
